# Data as given in PubChem BioAssay AID449750 (Broad Institute, 2010).
# Activity calls are given as the source filed them. No rule for the calls is given here.
# Assay: non-covalent RecA intein splicing inhibitors, dose response, biochemical, cell-free, fluorescence, secondary screen (AID 449750)
row,Compound,AC50
1,CCOC(=O)c1nn(-c2ccc(C)cc2)c(=O)c2c(N)scc12,> 38 µM (inactive)
2,O=C(Nc1cccc(OC(=O)c2ccco2)c1)c1ccco1,> 38 µM (inactive)
3,Cc1ccc(C[n+]2c(-c3ccc(C)cc3)cc(-c3ccc(C)cc3)cc2-c2ccc(C)cc2)cc1,6.62 µM
4,CCn1nc(C)c(C2C(C#N)=C(N)Oc3n[nH]c(C)c32)c1C (configuration not stated),> 38 µM (inactive)
5,O=C1CC(c2ccccc2)=NN1c1ccc([N+](=O)[O-])cc1,7.43 µM
6,COC(=O)CC1(c2cccc3ccccc23)C(=O)c2ccccc2C1=O,19.1 µM
7,[O-]C1=N/[N+](=C/c2ccccc2)CC1,> 38 µM (inactive)
8,COC(=O)c1sc(-c2ccc(Cl)cc2)cc1NC(=O)/C=C/C(=O)O,9.69 µM
9,O=C(NCc1cccnc1)/C(=C\c1ccc(-c2ccc(Br)cc2)o1)S(=O)(=O)c1ccccc1,24.7 µM
10,CC1CC(=O)c2c(cc3c(-c4c(O)cc(O)c5c(O)c6c(cc45)OC(C)CC6=O)c(O)cc(O)c3c2O)O1 (configuration not stated),2.71 µM
11,O=C(CCl)Nc1cccc(CP(=O)(c2ccccc2)c2ccccc2)c1,17.8 µM
12,O=C(Cc1cc(=O)[nH][nH]1)N/N=C/c1cccc(Cl)c1Cl,20 µM
13,CC1CCCCC1NC(=O)NC(=O)CCl (configuration not stated),39.8 µM
14,Cc1ccc(-n2nc(C)c3c2OC(N)=C(C#N)C3c2ccc(C)o2)cc1 (configuration not stated),8.87 µM
15,N=C1/C(=C\c2ccc(OC(=O)c3ccc(F)cc3)cc2)C(=O)N=C2SC(N3CCOCC3)=NN12,> 38 µM (inactive)
16,CC(C)c1[nH]nc2c1C1(CCN(Cc3ccccc3)CC1)C(C#N)=C(N)O2,> 38 µM (inactive)
17,COc1ccc(COC(=O)N/N=C(\C)CC(=O)Nc2ccc(Cl)cn2)cc1,> 38 µM (inactive)
18,CCCCCCCCCCCCCCCC[N+](C)(C)CC,10.9 µM
19,COC(=O)c1nc(-c2ccc3c(n2)C(=O)C(N)=C(OC)C3=O)c(N)c(-c2ccc(OC)c(OC)c2O)c1C,0.763 µM
20,O=C(O)/C=C/C(=O)Nc1ccc(SC(F)(F)C(F)(F)C(F)(F)F)cc1,7.99 µM
21,CCOc1ccc2c(c1)C(NC(C)=O)C(=O)N2CCN1CCOCC1 (configuration not stated),34.2 µM
22,COc1cccc(NC(=O)c2nc(S(C)(=O)=O)ncc2Cl)c1,> 38 µM (inactive)
23,CC(C)(C)c1[nH]nc2c1C(c1ccoc1)C(C#N)=C(N)O2 (configuration not stated),> 38 µM (inactive)
24,CN1CCN(C(c2ccc(Cl)cc2)c2cc(Cl)c3cccnc3c2O)CC1 (configuration not stated),24.8 µM
25,Cc1[nH]n(-c2ccccc2)c(=O)c1C(C[N+](=O)[O-])c1ccc(Cl)cc1 (configuration not stated),8.62 µM
26,N#C/C(=C\c1cc(Cl)c(OCc2ccc(Cl)cc2)c(Cl)c1)C(N)=O,9.11 µM

row,Compound,AC50
1,CC(C)(C)c1cc(C(c2cccnc2)N2CCN(CCO)CC2)cc(C(C)(C)C)c1O (configuration not stated),17.7 µM
2,COC(=O)C1CN(C#N)N(c2ccc(Cl)cc2)C12c1ccccc1-c1ccccc12 (configuration not stated),10.7 µM
3,CNCc1ccccc1Sc1ccc(O)c(O)c1,> 38 µM (inactive)
4,CCc1ccc(S(=O)(=O)/N=C2\C=C(Nc3cccc(C(=O)O)c3)C(=O)c3ccccc32)cc1,0.353 µM
5,COc1cccc(N(C(=O)CCl)C(C(=O)NCCc2ccccc2)c2cccs2)c1 (configuration not stated),1.29 µM
6,O=C1c2ccccc2C(=O)c2c1oc(C(F)(F)F)c2C(=O)c1ccccc1,> 38 µM (inactive)
7,CC1=NN(c2ccccc2)C(=O)/C1=C/c1cccs1,9.94 µM
8,O=C(CCl)N(Cc1ccccc1)c1ccccc1,4.16 µM
9,COc1ccccc1NC(=O)CSc1nc2c(sc3ccccc32)c(=O)n1CCN(C)C,> 38 µM (inactive)
10,COc1cc(-n2nc(C)c3c2OC(N)=C(C#N)C3c2ccccc2)c(Cl)c(Br)c1O (configuration not stated),16 µM
11,COc1cc(/C=N/NC(=O)c2ccc(F)cc2)ccc1OC(=O)c1ccco1,> 38 µM (inactive)
12,O=c1[nH]c(O)c(N=Nc2cc([N+](=O)[O-])ccc2O)c(=O)[nH]1,2.29 µM
13,O=c1[nH]c2ccc(Cl)cc2c(-c2ccccc2)c1SC(=S)N1CCCCC1,> 38 µM (inactive)
14,CC(=O)Nc1ccc(S(=O)(=O)NC2=C(N3CCN(c4ccc(F)cc4)CC3)C(=O)c3ccccc3C2=O)cc1,26.7 µM
15,O=c1c(Cl)nc2cc(Cl)ccc2n1CCNc1ncc(C(F)(F)F)cc1Cl,> 38 µM (inactive)
16,CC(=O)n1cc(N(C(=O)CCl)c2ccccc2)c2ccccc21,3.56 µM
17,CCc1cc(C(=O)c2ccc(C)cc2)c(NC(=O)CCl)s1,2.62 µM
18,O=[N+]([O-])c1c(NCCO)cc(Sc2nc3ccccc3s2)c2nonc12,32.3 µM
19,COc1ccc(-n2c3nc4ccccc4nc3c3c(=N)oc(C)nc32)cc1,> 12 µM (inactive)
20,Cc1ccc(C(=O)c2coc3cc([N+](=O)[O-])c(O)c([N+](=O)[O-])c23)cc1,> 38 µM (inactive)
21,COc1ccc(OC)c(N2C(=O)C(Cl)=C(N3CCOCC3)C2=O)c1,> 38 µM (inactive)
22,Cc1[nH][nH]c(=O)c1C(c1ccc([N+](=O)[O-])cc1)c1c(C)[nH][nH]c1=O,25.4 µM
23,CC(=O)Oc1ccc(N(C(C)=O)S(=O)(=O)c2ccc3ccccc3c2)cc1Br,29.5 µM
24,C/C(CC(=O)Nc1ccccn1)=N\NC(=O)Cc1cccc2ccccc12,25.6 µM
25,N=C(N)SCc1cn(-c2ccccc2)nc1-c1ccc(Br)cc1,16.2 µM
26,O=Cc1sc(=O)n(Cc2cccc(C(=O)O)c2)c1Cl,> 12 µM (inactive)
